Experimental data published in patent US20190275012A9, “SUBSTITUTED THIAZOLO-PYRIDINE COMPOUNDS AS MALT1 INHIBITORS” (Lupin Limited, priority 2016, published 2019).

Key:
[1] = target: T1, full length MALT1 enzyme (Homo sapiens, UniProt Q9UDY8); test: MALT1 biochemical assay (fluorescence based, Ac-Leu-Arg-Ser-Arg-AMC cleavage); settings: full length MALT1 protein, 2 h pre-incubation at RT, tetrapeptide substrate Ac-Leu-Arg-Ser-Arg-AMC, read-out: Malt 1 inhibition IC50
T1 construct: a fluorescence based assay with full length MALT1 enzyme
T1 sequence (Q9UDY8 1-824): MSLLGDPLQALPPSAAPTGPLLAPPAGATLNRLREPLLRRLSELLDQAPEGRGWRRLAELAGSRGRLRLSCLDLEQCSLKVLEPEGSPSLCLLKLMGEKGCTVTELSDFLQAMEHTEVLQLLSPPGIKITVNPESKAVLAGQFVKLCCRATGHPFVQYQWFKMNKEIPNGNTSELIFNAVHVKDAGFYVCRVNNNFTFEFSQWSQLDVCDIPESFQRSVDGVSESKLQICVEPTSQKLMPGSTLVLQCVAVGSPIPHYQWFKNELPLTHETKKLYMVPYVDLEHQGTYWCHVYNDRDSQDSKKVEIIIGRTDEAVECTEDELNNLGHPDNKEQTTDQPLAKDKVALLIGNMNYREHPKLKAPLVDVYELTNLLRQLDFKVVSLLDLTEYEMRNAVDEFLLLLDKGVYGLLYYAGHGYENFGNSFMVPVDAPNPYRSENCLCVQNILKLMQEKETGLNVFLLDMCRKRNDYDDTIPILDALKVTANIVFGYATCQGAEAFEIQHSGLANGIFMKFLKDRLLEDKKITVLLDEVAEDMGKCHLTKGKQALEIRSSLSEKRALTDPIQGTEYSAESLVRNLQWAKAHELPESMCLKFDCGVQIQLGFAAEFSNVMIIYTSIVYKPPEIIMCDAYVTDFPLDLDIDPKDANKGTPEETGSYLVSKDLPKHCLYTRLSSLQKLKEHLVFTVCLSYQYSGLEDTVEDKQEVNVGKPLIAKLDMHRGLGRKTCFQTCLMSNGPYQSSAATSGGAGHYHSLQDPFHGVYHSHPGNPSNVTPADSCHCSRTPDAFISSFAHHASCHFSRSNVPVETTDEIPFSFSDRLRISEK
Method in brief: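 Full-length MALT1 (100-300 ng/well) was pre-incubated with compound for 2 h at RT, then 100 μM Ac-LRSR-AMC was added for 4-12 h. Buffer was 50 mM MES, 150 mM NaCl, 0.1% CHAPS, 1 M ammonium citrate, 10 mM DTT, pH 7, with 0.5% DMSO. IC50 was derived from AMC fluorescence (ex 360/em 460 nm).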

[2] = system: NF-kB transcriptional activity in HEK-293-NF-kB-Luc cell line overexpressing MALT1; test: NF-kB reporter assay (luciferase, MALT1 stably overexpressed); format: cell-based; settings: Homo sapiens, 24 h, HEK-293-NF-kB-Luc cells stably overexpressing MALT1, 24 h treatment, Bright Glo luminescence; read-out: NF-kB inhibition IC50
Method in brief: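 Inhibition of NF-κB activity was expressed relative to 0.1% DMSO wells, from luminescence after 10 min Bright Glo at ambient temperature. Compounds had been applied for 24 h to adhered MALT1-overexpressing HEK-293 NF-κB luciferase reporter cells.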

[3] = system: OCI-Ly-10 cells; test: Anticancer assay (14 days), cell viability by CCK-8; format: cell-based; settings: Homo sapiens, OCI-Ly10, 336 h, 14 days treatment, fresh treatment every 5th day, CCK-8 viability, read-out: Ly-10 (14d) inhibition IC50
Method in brief: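 OCI-Ly-10 cells in IMDM + 20% FBS exposed to compound for 13–15 days, with media and compound refreshed every 5th day. Viability by CCK-8 absorbance at 450 nm (650 nm background); % inhibition versus 0.1% DMSO medium control.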

## COC(C)c1c(NC(=O)Nc2cc(-n3nccn3)cc(C(F)(F)F)c2)cnc2sc(C)nc12 (single isomer, unassigned) [Compound 217b, (S) or (R)-1-(3-(2H-1,2,3-triazol-2-yl)-5-(trifluoromethyl)phenyl)-3-(7-(1-methoxyethyl)-2-methylthiazolo[5,4-b]pyridin-6-yl)urea]
[1]
  IC50: 51 to 100 nM
[2]
  IC50: 1 to 100 nM
[3]
  IC50: 251 to 500 nM

## COc1ncc(NC(=O)Nc2cnc3sc(C)nc3c2C2CC2)cc1Cl [Compound 1, 1-(5-Chloro-6-methoxypyridin-3-yl)-3-(7-cyclopropyl-2-methylthiazolo [5,4-b]pyridin-6-yl)urea]
[1]
  IC50: 1 to 50 nM
[2]
  IC50: 1 to 100 nM
[3]
  IC50: 101 to 250 nM

## COc1ccc(NC(=O)Nc2cnc3sc(C)nc3c2C2CC2)cc1Cl [Compound 2, 1-(3-Chloro-4-methoxyphenyl)-3-(7-cyclopropyl-2-methylthiazolo[5,4-b]pyridin-6-yl)urea]
[1]
  IC50: 1 to 50 nM
[2]
  IC50: 501 to 1500 nM
[3]
  IC50: 251 to 500 nM

## Cc1nc2c(C3CC3)c(NC(=O)Nc3cnc(-n4nccn4)c(Cl)c3)cnc2s1 [Compound 9, 1-(5-Chloro-6-(2H-1,2,3-triazol-2-yl)pyridin-3-yl)-3-(7-cyclopropyl-2-methylthiazolo[5,4-b]pyridin-6-yl)urea]
[1]
  IC50: 1 to 50 nM
[2]
  IC50: 1 to 100 nM
[3]
  IC50: 26 to 100 nM

## CCc1c(NC(=O)Nc2cnc(OC)c(Cl)c2)cnc2sc(C)nc12 [Compound 26, 1-(5-Chloro-6-methoxypyridin-3-yl)-3-(7-ethyl-2-methylthiazolo[5,4-b]pyridin-6-yl)urea]
[1]
  IC50: 1 to 50 nM
[2]
  IC50: 101 to 500 nM
[3]
  IC50: 101 to 250 nM

## Cc1nc2c(N3CCOCC3)c(NC(=O)Nc3cnc(-n4nccn4)c(Cl)c3)cnc2s1 [Compound 28, 1-(5-Chloro-6-(2H-1,2,3-triazol-2-yl)pyridin-3-yl)-3-(2-methyl-7-morpholinothiazolo[5,4-b]pyridin-6-yl)urea]
[1]
  IC50: 1 to 50 nM
[2]
  IC50: 101 to 500 nM
[3]
  IC50: 501 to 1500 nM

## COCCN(c1c(NC(=O)Nc2cnc(-n3nccn3)c(Cl)c2)cnc2sc(C)nc12)C1CC1 [Compound 49, 1-(5-Chloro-6-(2H-1,2,3-triazol-2-yl)pyridin-3-yl)-3-(7-(cyclopropyl(2-methoxyethyl)amino)-2-methylthiazolo[5,4-b]pyridin-6-yl)urea]
[1]
  IC50: 1 to 50 nM
[2]
  IC50: 1 to 100 nM
[3]
  IC50: 26 to 100 nM

## Cc1nc2c(C3=CCCCC3)c(NC(=O)Nc3cnc(-n4nccn4)c(Cl)c3)cnc2s1 [Compound 59, 1-(5-Chloro-6-(2H-1,2,3-triazol-2-yl)pyridin-3-yl)-3-(7-(cyclohex-1-en-1-yl)-2-methylthiazolo[5,4-b]pyridin-6-yl)urea]
[1]
  IC50: 1 to 50 nM
[2]
  IC50: 101 to 500 nM
[3]
  IC50: 26 to 100 nM

## COC(C)(C)c1c(NC(=O)Nc2cnc(-n3nccn3)c(C(F)(F)F)c2)cnc2sc(C)nc12 [Compound 96, 1-(6-(2H-1,2,3-Triazol-2-yl)-5-(trifluoromethyl)pyridin-3-yl)-3-(7-(2-methoxypropan-2-yl)-2-methylthiazolo[5,4-b]pyridin-6-yl)urea]
[1]
  IC50: 1 to 50 nM
[2]
  IC50: 1 to 100 nM
[3]
  IC50: 0.1 to 25 nM

## Cc1nc2c(C3(CF)CC3)c(NC(=O)Nc3ccc(-n4nccn4)c(Cl)c3)cnc2s1 [Compound 107, 1-(3-Chloro-4-(2H-1,2,3-triazol-2-yl)phenyl)-3-(7-(1-(fluoromethyl)cyclopropyl)-2-methylthiazolo[5,4-b]pyridin-6-yl)urea]
[1]
  IC50: 1 to 50 nM
[2]
  IC50: 1 to 100 nM
[3]
  IC50: 101 to 250 nM

## Cc1nc2c(C(C)C)c(NC(=O)Nc3cnc(-n4nccn4)c(Cl)c3)cnc2s1 [Compound 115, 1-(5-Chloro-6-(2H-1,2,3-triazol-2-yl)pyridin-3-yl)-3-(7-isopropyl-2-methylthiazolo[5,4-b]pyridin-6-yl)urea]
[1]
  IC50: 1 to 50 nM
[2]
  IC50: 1 to 100 nM
[3]
  IC50: 26 to 100 nM

## COc1ncc(NC(=O)Nc2cnc3sc(C)nc3c2C(C)C)cc1Cl [Compound 119, 1-(5-Chloro-6-methoxypyridin-3-yl)-3-(7-isopropyl-2-methylthiazolo[5,4-b]pyridin-6-yl)urea]
[1]
  IC50: 1 to 50 nM
[2]
  IC50: 101 to 500 nM
[3]
  IC50: 251 to 500 nM

## Cc1nc2c(C3CC3)c(NC(=O)Nc3ccc(-n4nccn4)c(Cl)c3)cnc2s1 [Compound 168, 1-(3-Chloro-4-(2H-1,2,3-triazol-2-yl)phenyl)-3-(7-cyclopropyl-2-methylthiazolo[5,4-b]pyridin-6-yl)urea]
[1]
  IC50: 1 to 50 nM
[2]
  IC50: 501 to 1500 nM
[3]
  IC50: 251 to 500 nM

## COc1ncc(Cl)cc1NC(=O)Nc1cnc2sc(C)nc2c1C1CC1 [Compound 192, 1-(5-Chloro-2-methoxypyridin-3-yl)-3-(7-cyclopropyl-2-methylthiazolo[5,4-b]pyridin-6-yl)urea]
[1]
  IC50: 51 to 100 nM
[2]
  IC50: 101 to 500 nM
[3]
  IC50: 501 to 1500 nM

## Cc1nc2c(C3(CO)CC3)c(NC(=O)Nc3cnc(-n4nccn4)c(C(F)(F)F)c3)cnc2s1 [Compound 223, 1-(6-(2H-1,2,3-Triazol-2-yl)-5-(trifluoromethyl)pyridin-3-yl)-3-(7-(1-(hydroxymethyl)cyclopropyl)-2-methylthiazolo[5,4-b]pyridin-6-yl)urea]
[1]
  IC50: 1 to 50 nM
[2]
  IC50: 1 to 100 nM
[3]
  IC50: 251 to 500 nM
